# Results reported in paper PMC3462190, “A Peptidic Unconjugated GRP78/BiP Ligand Modulates the Unfolded Protein Response and Induces Prostate Cancer Cell Death” (PLoS ONE, 2012).
# Where no end group is shown, it is not given here.
# B1: Bag-1: cochaperone Bag-1, HA-tagged (pcDNA3.1-HA-Bag-1), or endogenous (protein)
# chain: TPLSALGIQDGCRVMLIGKKNSPQEEVELKKLKHLEKSVEKIADQLEELNKELTGIQQGFLPKDLQAE
# modifications: left off: HA, end not stated, kept
# notes: cochaperone Bag-1, HA-tagged (pcDNA3.1-HA-Bag-1), or endogenous
# B2: Bag-1 peptide: internal sequence of 68 amino acids of Bag-1 (Bag1-L 202–269), HA-tagged, expressed from pcDNA3 (peptide)
# chain: B1 chain
# modifications: also: HA tag, end not given here
# Key:
# [1] = test system: GRP78/BiP; assay: GST pull-down with GRP78/BiP; assay type: binding; conditions: for interaction with GRP78/BiP: GST-fused protein/peptide, 22Rv.1 cell lysate, Western blot
# Description: (§1) Expression of GST fusion proteins for GST-pull-down experiments were performed essentially as described previously.
# (§2) Figure 1 Bag-1 proteins interact with the molecular chaperone GRP78/BiP. A. The Bag-1 family of proteins binds GRP78/BiP. GST pull-down assay was performed incubating 5 µg each of GST-fused Bag-1 proteins with 400 µg of 22Rv.1 cell lysate. Western blotting with a specific antibodiy against GRP78/BiP was used to detect the binding and an anti-GST antibody was used to determine the amount of bacterially purified protein employed in the assay. B. Bag-1 and GRP78 interact in vivo. GRP78 was immunoprecipitated with an anti-GRP78/BiP antibody or IgG as control in 22Rv.1 cells. Western blotting with an anti-Bag-1 and anti-GRP78 antibody was performed to determine GRP78-Bag-1 interaction. C. Bag-1 and GRP78/BiP show a perinuclear colocalization. Confocal microscopic analyses were carried out in 22Rv.1 cells that have been paraformaldehyde-fixed and stained with a Bag-1 antibody to detect Bag-1 (green channel) and a GRP78/BiP specific antibody to detect GRP78/BiP (red channel). The orange staining in the merge of the two channels indicates the degree of co-localization of the two proteins. All images (40X) were acquired with a Leica TCS SPE confocal microscope (Leica Microsystems; Scale bars indicate 25 µm). D. Diagrammatic representation of the domains of GRP78. E. Bag-1 binds to multiple sites on GRP78. GST-pull down assay performed incubating 500 µg lysate of HEK-293 cells transfected with an HA-tagged Bag-1 and 10 µg GST-fused GRP78 full length and its ATPase and substrate binding domain (SBD). Western blot analysis was carried out using an HA antibody to detect the Bag-1-tagged protein.
# Figure 5 An N-terminal unfolded fragment of the Bag-1 peptide is sufficient to reduce tumor cell growth. A. Schematic diagram of the Bag-1 peptide and its deletion mutants. The ubiquitin-like domain is represented in blue and the BAG domain in red. The numbers refer to the amino acid positions of the different domains. The amino acid residues are numbered following the numbering for Bag-1L. B. Prediction of the secondary structure of the Bag-1 peptide, showing an N-terminal β-hairpin from the ubiquitin-like domain (blue) and a C-terminal α-helix from the BAG domain (red). C. Normalized circular dichroism spectra of the Bag-1 peptides. 30 µM of the Bag-1 peptide were measured in 20 mM KHPO4 buffer, pH 6.8 (black line). […] 12 µM of the N-term peptide (green line) and 11 µM of C-term (blue line) were measured under the same conditions. […] Cells transfected with the indicated constructs were selected in medium containing neomycin and the colonies formed were quantified. […] Tumor size was measured once per week using a caliper and expressed as tumor volume in mm^3. […]
# [2] = test system: SBD of GRP78/BiP; assay: GST pull-down with substrate binding domain (SBD) of GRP78/BiP; conditions: 10 µg GST-GRP78(SBD), 500 µg (N-terminal peptide: 100 µg) lysate of HEK-293 cells expressing HA-tagged construct
# Description: as §1, §2
# Figure 2 Identification of Bag-1 peptide interfering with the action of GRP78/BiP. […] Depicted in blue and red are the ubiquitin-like domain and the BAG domain respectively. B. Identification of the Bag-1 peptide binding to GRP78/BiP. GST-pull down assay performed incubating 500 µg lysates from HEK-293 cells transfected with the indicated Bag-1 constructs and 10 µg of GST-GRP78(SBD) or GST as control. Western blot analysis with an HA antibody to detected the Bag-1 mutants is shown. […] C. The Bag-1 68 amino acid peptide binds in vivo to GRP78. HEK 293 cells were co-transfected with pcDNA-HA-tagged Bag-1 peptide. […] Thereafter luciferase activity was measured. Results are expressed as percentage of refolding activity relative to non-heat-shocked cells and presented as bar charts of the average of three independent experiments ± SEM. *p<0.05. […]
Molecule,interaction with GRP78/BiP [1],interaction with SBD of GRP78/BiP [2],also measured
C-terminal peptide: 28 C-terminal fragment of the Bag-1 peptide (Bag-1L 241–269) (EKIADQLEELNKELTGIQQGFLPKDLQAE; not fully specified),not the C-terminal peptide bound to GRP78/BiP,,
N-terminal peptide: N-terminal 40 residues of the Bag-1 peptide (Bag-1L 202–241) (TPLSALGIQDGCRVMLIGKKNSPQEEVELKKLKHLEKSVE; not fully specified),bound to GRP78/BiP,interacted preferentially with the SBD,
ΔUbi peptide: Bag-1 peptide lacking the ubiquitin-like domain portion (Bag-1L 220–269) (KKNSPQEEVELKKLKHLEKSVEKIADQLEELNKELTGIQQGFLPKDLQAE; not fully specified),abrogated the binding to GRP78,,
B1,,interacted not only with the full length GRP78/BiP but also with its ATPase and SBD,"interaction with full length GRP78/BiP ([1]; 10 µg GST-fused GRP78 full length, lysate of HEK-293 cells expressing HA-tagged Bag-1): interacted not only with the full length GRP78/BiP"
B2,,,interaction with SBD of GRP78/BiP ([2]; listed as 68 amino acid sequence): required for binding the SBD of GRP78/BiP; interaction with SBD of GRP78/BiP ([2]; listed as full length 68 amino acid peptide): interacted with both the SBD and ATPase binding domains of GRP78
